Data taken from patent US20040213757A1, “Water soluble wortmannin derivatives” (Wyeth Holdings Corporation, priority 2003, published 2004).
In brackets after ≈: the same amount, converted by molar mass.

Key:
[1] = tested on: PI3K; conditions: cited from earlier work
[2] = tested on: C3H mammary model; conditions: cited from earlier work
[3] = tested on: H-157; experiment: Thymidine incorporation proliferation assay, H-157; format: cell-based, human; conditions: three days of treatment
Procedure: (§1) A549 (human non-small cell lung cancer) and H-157 cell lines were purchased from American Type Culture Collection (ATCC) (Rockville, Md.). Cells were cultured in RPMI Medium 1640 containing 10% fetal bovine serum (FBS) in a 37° C. incubator containing 5% CO2. All cell culture reagents were purchased from Gibco-BRL (Grand Island, N.Y.). Cells were plated in 96-well culture plates at about 3000 cells per well. One day following plating, water-soluble drug-polymer conjugates or the vehicle controls were added to cells. Proliferation assays were performed three days post initiation of treatment. For the non-radioactive cell proliferation assay, viable cell densities were determined by measuring metabolic conversion (by viable cells) of the dye MTS tatrazolium dye, a cell proliferation assay known by one of skill in the art (MTS assay), a previously established cell proliferation assay. The assay was performed using assay kit purchased from Promega Corp. (Madison, Wis.). The assay plates were incubated for 1-2 hours and the results were read in a 96-well format plate reader by measuring absorbance at 490 nm. For the thymidine incorporation assay, cells were labeled with [methyl-^3H]-thymidine (PerkinElmer Life Sciences, Boston, Mass.) for 5 hours. Cells were then harvested onto glass-fiber filter membranes and counted in a Wallac 1205 Betaplate liquid scintillation counter. Effect of each drug treatment was calculated as a percentage of control cell growth obtained from vehicle-treated cells grown in the same plate.

[4] = tested on: A549 (human non-small cell lung cancer); experiment: Thymidine incorporation proliferation assay, A549; format: cell-based; conditions: three days of treatment
Procedure: as §1

[5] = tested on: H-157; experiment: MTS cell proliferation assay, H-157; format: cell-based, human; conditions: three days of treatment
Procedure: as §1

[6] = tested on: A549 (human non-small cell lung cancer); experiment: MTS cell proliferation assay, A549; format: cell-based; conditions: three days of treatment
Procedure: as §1

[7] = tested on: U87MG glioblastoma; conditions: for Tumor Volume t/c, day 0 / Tumor Volume, mean, day 0 / Tumor Volume t/c, day 4 / Tumor Volume, mean, day 4 / Tumor Volume t/c, day 7 / Tumor Volume, mean, day 7 / Tumor Volume t/c, day 11 / Tumor Volume, mean, day 11 / Tumor Volume t/c, day 14 / Tumor Volume, mean, day 14 / Tumor Volume t/c, day 17 / Tumor Volume, mean, day 17: 0.7 mg/kg IV, d 0-4
Procedure: A tumor cell line for brain tumor, PTEN (−/−) U87MG Glioma was implanted in mice. The mice were dosed IV on days 0-4.
In this experiment, U87MG glioma growing as subcutaneous xenografts in nude mice were staged on day 0, and dosed on days 0-4 at 0.15, 0.5, 1.5, 5 and 15 mg/kg/dose of a wortmannin derivative of this invention.
In the U87MG glioma study shown in FIG. 3, a wortmannin derivative of this invention was dosed IV on days 0-4. Paclitaxel was dosed IP on days 0 and 7. The MTD of paclitaxel is 60 mg/kg/dose following a weekly dosing schedule. Mice were treated with a wortmannin derivative of this invention at 1 mg/kg/dose, paclitaxel at 30 and 60 mg/kg/dose, or treated in combination with a wortmannin derivative of this invention at 1 mg/kg/dose and paclitaxel at 30 mg/kg/dose.
A wortmannin derivative at 1 mg/kg/dose and Peg-rapa at 0.1 mg/kg/dose were dosed IV either alone or in combination on days 0-4.
Balb/c nu/nu (athymic) mice were housed in accordance with Association for Accreditation of Laboratory Animal Care (AALAACC) standards for at least one week prior to their experimental usage. The animals were housed in microisolator cages and handled only in a laminar flow hood. All food and water was autoclaved. Mice were inoculated on the left flank with a volume of 200 μL using a 25-26 gauge sterile needle and syringe with a suspension of cells. The cells were resuspended in full growth media and delivered at 10 million cells per mouse. When the resulting tumors reached the appropriate size for staging, the mice were regrouped to produce equivalent sized groups with n=10. Once staged, the mice were dosed 0.2 cc iv with the water-soluble drug-polymer conjugate II and water-soluble drug-polymer conjugate IV resuspended in sterile, distilled water. Wortmannin and other non-pegylated water-soluble drug-polymer conjugate were prepared 10 mg/ml in Dimethyl sulfoxide (DMSO) and diluted with Phosphate Buffered Saline (PBS) right before injecting into the mouse. Treatment was administered as a daily×5 dosing schedule repeated every 2 weeks until the tumors reach 10% of the animal's weight. The growth of the solid tumor was monitored twice a week for the duration of the experiment. Tumor size was quantitated using sliding vernier calipers and the mass was calculated using the formula […]. Conversion from cubic mm to mg was made assuming unit density. Tumors were not allowed to grow larger than 15% of the mouse's weight, at which point the mouse was euthanized.

Compound | Tumor Volume t/c, day 0 [7] | Tumor Volume, mean, day 0 [7] [mm^3] | Tumor Volume t/c, day 4 [7] | Tumor Volume, mean, day 4 [7] [mm^3] | Tumor Volume t/c, day 7 [7] | Tumor Volume, mean, day 7 [7] [mm^3] | Tumor Volume t/c, day 11 [7] | Tumor Volume, mean, day 11 [7] [mm^3] | Tumor Volume t/c, day 14 [7] | Tumor Volume, mean, day 14 [7] [mm^3] | Tumor Volume t/c, day 17 [7] | Tumor Volume, mean, day 17 [7] [mm^3] | Thymidine Assay IC50, H-157 [3] [mg/L] | Thymidine Assay IC50, A549 [4] [mg/L] | MTS Assay IC50, H-157 [5] [mg/L] | MTS Assay IC50, A549 [6] [mg/L] | also measured
COCC1OC(=O)c2coc3c2C1(C)C1=C(C3=O)C2CCC(O)C2(C)CC1OC(C)=O (stereo not drawn) [17β-Hydroxywortmannin] | – | – | – | – | – | – | – | – | – | – | – | – | – | – | – | – | increase in activity relative to wortmannin ([1]; PI3K): 10 fold; IC50 [1]: 0.5 nM; antitumor activity in the C3H mammary model ([2]; dose of 0.5 mg/kg): no inhibition; toxicity in the C3H mammary model ([2]; dose of 1.0 mg/kg): toxicity
COC[C@H]1OC(=O)c2coc3c2[C@@]1(C)C1=C(C3=O)[C@@H]2CCC(=O)[C@@]2(C)C[C@H]1OC(C)=O [Wortmannin] | – | – | – | – | – | – | – | – | – | – | – | – | – | – | – | – | IC50 ([3]; Homo sapiens, NCI-H157, 72 h): 3.2 mg/L (≈ 7.47 µM); IC50 ([4]; Homo sapiens, 72 h): 2.5 mg/L (≈ 5.84 µM); IC50 ([5]; Homo sapiens, NCI-H157, 72 h): 10 mg/L (≈ 23.3 µM); IC50 ([6]; Homo sapiens, 72 h): 9 mg/L (≈ 21 µM)
Conjugate (III) of M-PEG-SH 5000 and 17-dihydro-17-(1-iodoacetyl)-wortmannin [Water-soluble drug-polymer conjugate III] | 1.01 | 137.4 | 0.51 | 144.0 | 0.37 | 120.2 | 0.51 | 300.2 | 0.50 | 547.0 | 0.44 | 926.8 | >3 | >3 | >3 | >3 | –
Conjugate (IV) of M-PEG-SH 5000 and 11-desacetyl-11-(1-iodoacetyl)-wortmannin [Water-soluble drug-polymer conjugate IV] | 0.97 | 131.0 | 0.58 | 165.0 | 0.46 | 147.9 | 0.60 | 349.0 | 0.64 | 707.4 | 0.69 | 1454.9 | >3 | >3 | >3 | >3 | –
CC(=O)O[C@H]1C(=O)[C@@]2(C)[C@H]([C@H](OC(=O)c3ccccc3)[C@]3(O)C[C@H](OC(=O)[C@H](O)[C@@H](NC(=O)c4ccccc4)c4ccccc4)C(C)=C1C3(C)C)[C@]1(OC(C)=O)CO[C@@H]1C[C@@H]2O [paclitaxel, reference compound] | – | – | – | – | – | – | – | – | – | – | – | – | – | – | – | – | MTD of paclitaxel ([7]; mouse, in vivo, ip): 60 mg/kg/dose
